In ChEMBL document CHEMBL1126418, “Synthesis of chemically stable 9-substituted carbacyclin derivatives and their biological use” (Bioorg Med Chem Lett, 1992):

Experiments:
[1] = Evaluated for the relative potency to that of Iloprost.; assay type: functional
[2] = organism: Homo sapiens; assay: The compound was tested for inhibition of blood platelet aggregation induced by ADP; assay type: functional, organism-based
[3] = molecular target: Prostacyclin receptor (Homo sapiens) (UniProt P43119); assay: Affinity for Prostaglandin I2 receptor; set-up: unit not given here
[4] = organism: Homo sapiens; assay: Compound was tested for inhibition of blood platelet aggregation induced by ADP; 0.2-0.5*10e-9; assay type: functional, organism-based
[5] = organism: Homo sapiens; assay: The compound was tested for inhibition of blood platelet aggregation induced by ADP; 100-250*10e-9; assay type: functional, organism-based
[6] = organism: Homo sapiens; assay: The compound was tested for inhibition of blood platelet aggregation induced by ADP; 0.5-2.5*10e-9; assay type: functional, organism-based

Sequence of Prostacyclin receptor (Homo sapiens) (P43119 whole entry): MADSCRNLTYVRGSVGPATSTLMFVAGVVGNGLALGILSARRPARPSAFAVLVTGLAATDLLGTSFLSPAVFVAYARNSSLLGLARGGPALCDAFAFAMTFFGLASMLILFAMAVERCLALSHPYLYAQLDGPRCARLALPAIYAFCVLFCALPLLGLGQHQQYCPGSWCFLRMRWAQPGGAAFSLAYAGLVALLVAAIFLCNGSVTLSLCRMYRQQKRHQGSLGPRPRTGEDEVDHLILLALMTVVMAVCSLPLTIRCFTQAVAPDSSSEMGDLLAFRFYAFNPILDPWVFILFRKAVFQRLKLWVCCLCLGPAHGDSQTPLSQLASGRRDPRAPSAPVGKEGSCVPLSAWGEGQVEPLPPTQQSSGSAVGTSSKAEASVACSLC

| SMILES | IC50 [2] [nM] | KF [3] | IC50 [4] [nM] | IC50 [5] [nM] | IC50 [6] [nM] | Relative potency [1] |
| --- | --- | --- | --- | --- | --- | --- |
| CC#CCC(C)[C@H](O)/C=C/[C@@H]1[C@H]2C/C(=C/CCCC(=O)O)C[C@H]2C[C@H]1O (stereo in doubt; 1) [ILOPROST] | – | 1 | 0.2 | – | – | 1 |
| CC#CCC(C)[C@H](O)/C=C/[C@H]1[C@H](O)C[C@]2(C#CCCCBr)C/C(=C/CCCC(=O)O)C[C@H]12 (some centres undefined) | – | – | – | 100 | – | 0.001 |
| CC#CCC(C)[C@H](O)/C=C/[C@H]1[C@H](O)C[C@]2(C#CCCCBr)C/C(=C\CCCC(=O)O)C[C@H]12 (some centres undefined) | – | 3 | – | – | 0.5 | 1 |
| CC#CCC(C)[C@H](O)/C=C/[C@H]1[C@H](O)C[C@]2(C#CCCCN=[N+]=[N-])C/C(=C/CCCC(=O)O)C[C@H]12 (some centres undefined) | 850 | 80 | – | – | – | 0.003 |
| CC#CCC(C)[C@H](O)/C=C/[C@H]1[C@H](O)C[C@]2(CCCCCO)C/C(=C\CCCC(=O)O)C[C@H]12 (some centres undefined) | 7000 | 130 | – | – | – | 0.0006 |
| CC#CCC(C)[C@H](O)/C=C/[C@H]1[C@H](O)C[C@]2(C#CCCC(=O)O)C/C(=C\CCCC(=O)O)C[C@H]12 (some centres undefined) | 2000 | 200 | – | – | – | 0.0002 |
| CC#CCC(C)[C@H](O)/C=C/[C@H]1[C@H](O)C[C@]2(CCCCCO)C/C(=C/CCCC(=O)O)C[C@H]12 (some centres undefined) | 11000 | n.k. | – | – | – | 4e-05 |
| CC#CCC(C)[C@H](O)/C=C/[C@@H]1[C@H]2CC(=CCCCC(=O)O)C[C@H]2C[C@H]1O (some centres undefined) [ILOPROST] | 4400 | 11 | – | – | – | 0.0001 |

Continued, in another order:

| IC50 [2] [nM] | KF [3] | IC50 [4] [nM] | IC50 [5] [nM] | IC50 [6] [nM] | SMILES | Relative potency [1] |
| --- | --- | --- | --- | --- | --- | --- |
| 20 | 6 | – | – | – | CC#CCC(C)[C@H](O)/C=C/[C@H]1[C@H](O)C[C@]2(C#CCCCN=[N+]=[N-])C/C(=C\CCCC(=O)O)C[C@H]12 (some centres undefined) | 0.1 |
| 10 | 25 | – | – | – | CC#CCC(C)[C@H](O)/C=C/[C@H]1[C@H](O)C[C@]2(C#CCCCO)C/C(=C\CCCC(=O)O)C[C@H]12 (some centres undefined) | 0.2 |
| 500 | 29 | – | – | – | CC#CCC(C)[C@H](O)/C=C/[C@H]1[C@H](O)C[C@]2(CCCCCN=[N+]=[N-])C/C(=C\CCCC(=O)O)C[C@H]12 (some centres undefined) | 0.0005 |
| 200 | 300 | – | – | – | CC#CCC(C)[C@H](O)/C=C/[C@H]1[C@H](O)C[C@]2(C#CCCCO)C/C(=C/CCCC(=O)O)C[C@H]12 (some centres undefined) | 0.004 |
| 400 | 180 | – | – | – | CC#CCC(C)[C@H](O)/C=C/[C@H]1[C@H](O)C[C@]2(CCC#CCCCO)C/C(=C\CCCC(=O)O)C[C@H]12 (some centres undefined) | 0.002 |
| 200 | > 100 | – | – | – | CC#CCC(C)[C@H](O)/C=C/[C@H]1[C@H](O)C[C@]2(C#CCCCI)C/C(=C/CCCC(=O)O)C[C@H]12 (some centres undefined) | 0.001 |
| 5 | 5.6 | – | – | – | CC#CCC(C)[C@H](O)/C=C/[C@H]1[C@H](O)C[C@]2(C#CCCCI)C/C(=C\CCCC(=O)O)C[C@H]12 (some centres undefined) | 1 |
